According to patent publication US12590071B2, “Hydrazone derivative in which terminal amine group is substituted with aryl group or heteroaryl group, and use thereof” (KOREA INSTITUTE OF SCIENCE AND TECHNOLOGY, priority 2018, dated 2026):

How the values were obtained:
[1] = Liver microsomal stability (human); assay type: in vitro ADME; conditions: amount of substrate remaining; 1 μM, 0.25 mg/mL microsomes, 37° C., 30 minutes
Procedure: (§1) The liver microsomal stability of the compounds prepared according to Examples 1 to 171 was confirmed. Specifically, four kinds of liver microsomes (human, dog, rat, and mouse, each 0.25 mg/mL), a 0.1 M phosphate buffer solution (pH 7.4), and the compounds with a concentration of 1 μM were added, respectively. Then the mixture was cultured in advance at 37° C. for 5 minutes, and then further cultured at 37° C. for 30 minutes together with the addition of an NADPH generation system solution. Thereafter, a reaction was terminated by adding an acetonitrile solution containing an internal standard material (chloropropamide), centrifugal separation (14,000 rpm, 4° C.) was performed for 5 minutes, and then a supernatant was injected into an LC-MS/MS system. The substrate drugs were analyzed to evaluate the metabolic stability for 8 kinds of compounds.
(§2) The amount of substrate remaining through the reaction was analyzed using the Shimadzu Nexera XR system and TSQ vantage (Thermo). Kinetex XB-C18 (2.1 mm×100 mm, 2.6 μm, particle size; Phenomenex, USA) was used in an HPLC column, and (A) distilled water containing 0.1% formic acid and (B) acetonitrile containing 0.1% formic acid were used as mobile phases. Analyst software (version 1.6.3) and Xcalibur (version 1.6.1) were used for data analysis.

[2] = Liver microsomal stability (rat); assay type: in vitro ADME; conditions: amount of substrate remaining; 1 μM, 0.25 mg/mL microsomes, 37° C., 30 minutes
Procedure: as §1, §2

CYP2D6 = target: T1, CYP2D6 (Homo sapiens, UniProt P10635); assay: Inhibition of CYP coenzyme activity in human liver microsomes; assay type: in vitro ADME; conditions: compound 10 PM (so in the source); human liver microsomes 0.25 mg/mL; substrate dextromethorphan; 15 minutes
T1 construct: human liver microsomes (0.25 mg/mL); from tissue; host or cells: human liver microsomes
T1 sequence (P10635 whole entry): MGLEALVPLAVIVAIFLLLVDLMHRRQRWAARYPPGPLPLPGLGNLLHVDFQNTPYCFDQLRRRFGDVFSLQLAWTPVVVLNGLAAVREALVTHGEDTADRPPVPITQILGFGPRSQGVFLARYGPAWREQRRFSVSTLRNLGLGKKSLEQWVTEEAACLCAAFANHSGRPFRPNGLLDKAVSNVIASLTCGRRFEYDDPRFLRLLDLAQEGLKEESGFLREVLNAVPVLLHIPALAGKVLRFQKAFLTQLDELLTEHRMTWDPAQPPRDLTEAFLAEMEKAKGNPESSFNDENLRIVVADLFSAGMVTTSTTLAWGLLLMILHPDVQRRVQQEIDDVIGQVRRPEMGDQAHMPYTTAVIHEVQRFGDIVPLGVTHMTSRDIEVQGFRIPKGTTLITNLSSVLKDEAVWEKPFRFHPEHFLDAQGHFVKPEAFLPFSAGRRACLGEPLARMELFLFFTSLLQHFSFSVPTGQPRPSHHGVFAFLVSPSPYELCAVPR
Procedure: (§3) 5 The inhibition effects of CYP coenzyme activity by the compounds prepared according to Examples 1 to 171 was confirmed. Specifically, human liver microsomes (0.25 mg/mL), a 0.1 M phosphate buffer solution (pH 7.4), substrate drug cocktails (phenacetin 50 μM, diclofenac 10 μM, S-mephenytoin 100 μM, dextromethorphan 5 μM, and midazolam 2.5 μM) of five kinds of drug metabolism enzymes, and the compounds with a concentration of 0 μM or 10 PM were added, respectively. Then the mixture was cultured in advance at 37° C. for 5 minutes, and then further cultured at 37° C. for 15 minutes together with the addition of an NADPH generation system solution. Thereafter, a reaction was terminated by adding an acetonitrile solution containing an internal standard material (terfenadine), centrifugal separation (14,000 rpm, 4° C.) was performed for 5 minutes, and then a supernatant was injected into an LC-MS/MS system. Metabolites of the substrate drugs were simultaneously analyzed to evaluate the drug metabolism inhibition ability.
(§4) Metabolites of each CYP coenzyme indicator drug generated through the reaction were analyzed using the Shimadzu Nexera XR system and TSQ vantage (Thermo). Kinetex C18 (2.1 mm×100 mm, 2.6 μm, particle size; Phenomenex, USA) was used in an HPLC column, and (A) distilled water containing 0.1% formic acid and (B) acetonitrile containing 0.1% formic acid were used as mobile phases, and the gradient program shown in Table 2 was applied.
(§5) The generated metabolites were quantified using an MRM (multiple reaction monitoring) quantification mode, and Xcalibur (version 1.6.1) was used for data analysis.

CYP1A2 = target: T2, CYP1A2 (Homo sapiens, UniProt P05177); assay: as above; assay type: in vitro ADME; conditions: compound 10 PM (so in the source); human liver microsomes 0.25 mg/mL; substrate phenacetin; 15 minutes
T2 construct: human liver microsomes (0.25 mg/mL); from tissue; host or cells: human liver microsomes
T2 sequence (P05177 1-516): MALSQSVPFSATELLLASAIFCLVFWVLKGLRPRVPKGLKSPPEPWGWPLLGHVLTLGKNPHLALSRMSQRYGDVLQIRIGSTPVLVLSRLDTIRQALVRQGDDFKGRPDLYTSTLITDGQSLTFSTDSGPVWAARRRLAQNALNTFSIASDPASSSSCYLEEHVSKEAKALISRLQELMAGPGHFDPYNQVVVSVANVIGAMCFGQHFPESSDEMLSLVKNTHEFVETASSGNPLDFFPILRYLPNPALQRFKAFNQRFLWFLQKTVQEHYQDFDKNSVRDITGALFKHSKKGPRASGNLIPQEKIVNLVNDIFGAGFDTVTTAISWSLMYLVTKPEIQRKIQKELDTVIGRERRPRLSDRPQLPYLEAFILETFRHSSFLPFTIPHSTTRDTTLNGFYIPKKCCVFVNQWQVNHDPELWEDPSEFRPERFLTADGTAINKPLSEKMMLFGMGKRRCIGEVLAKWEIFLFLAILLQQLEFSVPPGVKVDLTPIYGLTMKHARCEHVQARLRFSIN
Procedure: as §3, §4, §5

CYP2C19 = target: T3, CYP2C19 (Homo sapiens, UniProt P33261); assay: as above; assay type: in vitro ADME; conditions: compound 10 PM (so in the source); human liver microsomes 0.25 mg/mL; substrate S-mephenytoin; 15 minutes
T3 construct: human liver microsomes (0.25 mg/mL); from tissue; host or cells: human liver microsomes
T3 sequence (P33261 whole entry): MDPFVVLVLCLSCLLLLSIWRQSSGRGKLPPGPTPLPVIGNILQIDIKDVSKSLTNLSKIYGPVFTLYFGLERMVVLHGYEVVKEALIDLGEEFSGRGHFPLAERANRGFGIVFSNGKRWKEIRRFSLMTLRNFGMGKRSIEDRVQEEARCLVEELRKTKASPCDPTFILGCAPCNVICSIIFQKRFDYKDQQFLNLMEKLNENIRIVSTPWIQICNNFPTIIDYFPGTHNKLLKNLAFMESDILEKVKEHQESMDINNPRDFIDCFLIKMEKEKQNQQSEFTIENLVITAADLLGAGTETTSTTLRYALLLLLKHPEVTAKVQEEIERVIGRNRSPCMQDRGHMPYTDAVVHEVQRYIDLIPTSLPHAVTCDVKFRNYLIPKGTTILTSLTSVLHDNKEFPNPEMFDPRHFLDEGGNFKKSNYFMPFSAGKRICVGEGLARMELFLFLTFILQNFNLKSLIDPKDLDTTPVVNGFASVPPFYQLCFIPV
Procedure: as §3, §4, §5

CYP2C9 = target: T4, CYP2C9 (Homo sapiens, UniProt P11712); assay: as above; assay type: in vitro ADME; conditions: compound 10 PM (so in the source); human liver microsomes 0.25 mg/mL; substrate diclofenac; 15 minutes
T4 construct: human liver microsomes (0.25 mg/mL); from tissue; host or cells: human liver microsomes
T4 sequence (P11712 whole entry): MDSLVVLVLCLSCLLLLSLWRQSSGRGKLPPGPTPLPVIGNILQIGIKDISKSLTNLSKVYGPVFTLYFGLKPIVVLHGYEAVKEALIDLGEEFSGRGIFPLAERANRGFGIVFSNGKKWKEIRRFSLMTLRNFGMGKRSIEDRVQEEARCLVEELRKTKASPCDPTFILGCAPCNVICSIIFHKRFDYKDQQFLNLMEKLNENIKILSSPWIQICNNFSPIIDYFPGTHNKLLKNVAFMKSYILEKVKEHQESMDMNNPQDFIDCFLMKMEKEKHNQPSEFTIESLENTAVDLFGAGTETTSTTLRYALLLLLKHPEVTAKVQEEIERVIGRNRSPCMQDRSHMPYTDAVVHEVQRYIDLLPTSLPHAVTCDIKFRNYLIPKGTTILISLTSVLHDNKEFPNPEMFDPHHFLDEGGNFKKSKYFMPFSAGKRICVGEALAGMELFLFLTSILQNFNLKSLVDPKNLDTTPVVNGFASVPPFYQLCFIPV
Procedure: as §3, §4, §5

Tau-BiFC cells = assay: Cytotoxicity (cell survival rate) in tau-BiFC cells; conditions: group treated with Forskolin alone = 100%
Procedure: (§6) In order to select new tau protein aggregation-inhibiting materials, tau-BiFC cell models, in which it is easy to observe the formation of tau oligomers in living cells, were used. […] After 48 hours, intracellular nuclei were stained using Hoechst (treatment concentration 2 μg/mL), and BiFC fluorescence intensity was automatically quantified using Operetta (PerkinElmer) to count stained nuclei in each well from the total well plates. […] Further, the degree of cytotoxicity induced by the newly synthesized compound is also based on the 100% survival rate of the group treated with Forskolin alone, and the cytotoxicity value of the compound was calculated by the equation “number of stained nuclei in the group treated with the compound/number of stained nuclei in the group treated with Forskolin x 100”.
(§7) In order to evaluate dose-dependent tau protein aggregation inhibition effects of the compounds selected according to Experimental Example 1, the selected compounds were treated in tau-BiFC cells at concentrations of 0.03 µM, […], 0.3 μM, 1 μM, 3 μM, 10 μM, and 30 μM, respectively, together with Forskolin (treatment concentration 30 µM) as a tau protein aggregation inducing material. After 48 hours, tau protein aggregation reaction and cytotoxicity degree were analyzed by observing cell images. The IC50 and toxicity of the compounds were analyzed by nonlinear regression analysis of prism software (Graph Pad).

CYP3A4 = target: T5, CYP3A4 (Homo sapiens, UniProt P08684); assay: Inhibition of CYP coenzyme activity in human liver microsomes; assay type: in vitro ADME; design: scale not given here; conditions: compound 10 PM (so in the source); human liver microsomes 0.25 mg/mL; substrate midazolam; 15 minutes
T5 construct: human liver microsomes (0.25 mg/mL); from tissue; host or cells: human liver microsomes
T5 sequence (P08684 whole entry): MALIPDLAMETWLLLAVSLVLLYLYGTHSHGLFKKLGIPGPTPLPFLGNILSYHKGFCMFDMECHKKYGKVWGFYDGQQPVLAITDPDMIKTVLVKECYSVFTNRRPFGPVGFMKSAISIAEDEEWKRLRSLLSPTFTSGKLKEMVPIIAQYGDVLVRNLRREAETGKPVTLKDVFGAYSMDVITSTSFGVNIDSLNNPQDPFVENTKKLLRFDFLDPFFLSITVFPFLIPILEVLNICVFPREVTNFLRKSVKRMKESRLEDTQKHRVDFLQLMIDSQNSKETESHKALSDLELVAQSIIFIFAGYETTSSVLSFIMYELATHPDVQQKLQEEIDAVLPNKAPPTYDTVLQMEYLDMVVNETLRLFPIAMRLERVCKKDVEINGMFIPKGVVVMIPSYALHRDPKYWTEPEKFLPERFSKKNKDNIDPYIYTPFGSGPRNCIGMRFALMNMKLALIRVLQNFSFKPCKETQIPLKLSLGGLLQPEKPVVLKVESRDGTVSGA
Procedure: as §3, §4, §5

[3] = Liver microsomal stability (mouse); assay type: in vitro ADME; conditions: amount of substrate remaining; 1 μM, 0.25 mg/mL microsomes, 37° C., 30 minutes
Procedure: as §1, §2

tau protein = target: T6, tau protein (Homo sapiens, UniProt P10636); assay: Tau protein aggregation inhibition in tau-BiFC cell model; assay type: cell-based; conditions: tau-BiFC cells treated together with Forskolin, 48 hours
T6 construct: expressed in transfected cells
T6 sequence (P10636 2-441 isoform P10636-8 limits assumed): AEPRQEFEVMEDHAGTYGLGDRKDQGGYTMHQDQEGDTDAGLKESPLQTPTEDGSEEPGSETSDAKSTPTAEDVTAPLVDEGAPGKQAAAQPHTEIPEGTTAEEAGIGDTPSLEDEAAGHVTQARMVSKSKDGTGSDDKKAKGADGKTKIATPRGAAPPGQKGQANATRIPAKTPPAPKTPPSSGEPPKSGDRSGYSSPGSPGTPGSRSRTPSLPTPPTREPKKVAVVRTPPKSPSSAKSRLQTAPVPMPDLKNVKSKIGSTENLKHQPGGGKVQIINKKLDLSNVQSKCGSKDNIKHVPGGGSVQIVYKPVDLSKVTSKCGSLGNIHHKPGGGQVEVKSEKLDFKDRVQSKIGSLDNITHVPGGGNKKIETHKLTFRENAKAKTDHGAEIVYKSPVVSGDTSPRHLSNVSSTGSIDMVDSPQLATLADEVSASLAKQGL
Procedure: as §6, §7

[4] = Liver microsomal stability (dog); assay type: in vitro ADME; conditions: amount of substrate remaining; 1 μM, 0.25 mg/mL microsomes, 37° C., 30 minutes
Procedure: as §1, §2

Compound | liver microsomal stability, Human (%) [1] [%] | liver microsomal stability, Rat (%) [2] [%] | inhibition effects of CYP coenzyme activity, CYP2D6 (CYP2D6) | inhibition effects of CYP coenzyme activity, CYP1A2 (CYP1A2) | inhibition effects of CYP coenzyme activity, CYP2C19 (CYP2C19) | inhibition effects of CYP coenzyme activity, CYP2C9 (CYP2C9) | Cell survival rate (% @ 10 μM) (Tau-BiFC cells) [%] | inhibition effects of CYP coenzyme activity, CYP3A4 (CYP3A4) | liver microsomal stability, Mouse (%) [3] [%] | IC50 (tau protein) [µM] | liver microsomal stability, Dog (%) [4] [%]
N#CC(C#N)=NNc1cnc2[nH]cc(Cl)c2c1 [Compound 83, (3-chloro-1H-pyrrolo[2,3-b]pyridin-5-yl)carbonohydrazonoyl dicyanide] | 64.1 | 62.2 | 91.1 | 47.7 | 96.4 | 51 | 98 | 86.4 | 11 | 0.3 | 31.9
COc1cnc(-c2ccc(NN=C(C#N)C#N)cc2)nc1 [Compound 8, (4-(5-methoxypyrimidin-2-yl)-phenyl)carbonohydrazonoyl dicyanide] | 80.9 | 40.7 | >100 | 94.1 | >100 | 85.1 | 107.8 | >100 | 83.7 | 0.02 | 96
N#CC(C#N)=NNc1ccc2nc(NC(=O)c3ccccc3O)sc2c1 [Compound 87, (2-(2-hydroxybenzamido)benzo[d]thiazol-6-yl)carbonohydrazonoyl dicyanide] | 82.1 | 73.9 | 83.6 | 77 | 86.4 | 53.5 | 75.3 | 62.7 | 83.1 | 0.4 | 80.6
N#CC(C#N)=NNc1ccc2[nH]ncc2c1 [Compound 69, (1H-indazol-5-yl)carbonohydrazonoyl dicyanide] | 97.6 | 64.4 | >100 | 80.1 | 82.1 | 16.6 | 204.7 | 95.2 | 34.2 | 0.19 | 71.9
Cn1cc2c(-c3ccc(NN=C(C#N)C#N)cc3)cccc2n1 [Compound 55, (4-(2-methyl-2H-indazol-4-yl)phenyl)carbonohydrazonoyl dicyanide] | 70 | 60.8 | >100 | 66.9 | 86 | 59.5 | 120.1 | 87.6 | 71.2 | 1 | 85.6
COc1cc(-c2nccc(C)n2)ccc1NN=C(C#N)C#N [Compound 42, (2-methoxy-4-(4-methylpyrimidin-2-yl)phenyl)carbonohydrazonoyl dicyanide] | 53.4 | 46.5 | >100 | 83.6 | 96.2 | 88.8 | 128 | >100 | 47.9 | 3 | 30.7
Cc1cncc(-c2nc3ccc(NN=C(C#N)C#N)cc3s2)c1 [Compound 110, (2-(5-methylpyridin-3-yl)benzo[d]thiazol-6-yl)carbonohydrazonoyl dicyanide] | 55 | 51.3 | 70.8 | 55 | 51.3 | 60.2 | 74.6 | 55 | 70.8 | 0.76 | 60.2
Cc1cnc(-c2ccc(NN=C(C#N)C#N)cc2)nc1 [Compound 4, (4-(5-methylpyrimidin-2-yl)phenyl)carbonohydrazonoyl dicyanide] | 70.1 | 4.5 | 97.3 | 85.1 | 90.7 | 81.5 | 93.1 | >100 | 35.6 | 0.65 | 75
